Reference: patent publication US4444754A, “Derivatives of clavulanic acid, a process for their preparation and their use” (Beecham Group Limited, priority 1978, dated 1984)
Converted amounts (≈) assume the structure as drawn. Where two headings read alike, the source gives them in different places. One block for each compound: values may come before it.

Assays:
[1] = test system: Staphylococcus aureus Smith; experiment: in-vivo anti-bacterial activity in mice with intraperitoneal Staphylococcus aureus Smith infection; settings: intraperitoneal S. aureus Smith; for ED50: Staphylococcus aureus, sc, sub-cutaneous dosing 1 and 5 hours post infection
Method: (§1) When tested in mice suffering from an intraperitoneal infection of Staphylococcus aureus Smith, the following results where obtained with sub-cutaneous dosing 1 and 5 hours post infection: […]

E. coli 0111 = experiment: MIC in DST agar containing 5% blood; format: cell-based; settings: Escherichia coli
Description: (§2) The following MIC values (μg/ml) for the compound of Example 2 were obtained in DST agar containing 5% blood: […]

E. coli ESS = experiment: MIC in DST agar containing 5% blood; format: cell-based; settings: Escherichia coli
Description: as §2

E. coli JT39 (R+) = experiment: MIC in DST agar containing 5% blood; format: cell-based; settings: Escherichia coli
Description: as §2

Kleb. aerogenes A = experiment: MIC in DST agar containing 5% blood; format: cell-based; settings: Klebsiella aerogenes
Description: as §2

Prot. mirabilis C977 = experiment: MIC in DST agar containing 5% blood; format: cell-based; settings: Proteus mirabilis
Description: as §2

Staph. aureus 1517 = experiment: MIC in DST agar containing 5% blood; format: cell-based; settings: Staphylococcus aureus
Description: as §2

Staph. aureus Oxford = experiment: MIC in DST agar containing 5% blood; format: cell-based; settings: Staphylococcus aureus
Description: as §2

Staph. aureus Russell = experiment: MIC in DST agar containing 5% blood; format: cell-based; settings: Staphylococcus aureus
Description: as §2

Strep. faecalis I = experiment: MIC in DST agar containing 5% blood; format: cell-based; settings: Enterococcus faecalis
Description: as §2

Strep. pneumoniae = experiment: MIC in DST agar containing 5% blood; format: cell-based; settings: Streptococcus pneumoniae
Description: as §2

Strep. pyogenes CN1O = experiment: MIC in DST agar containing 5% blood; format: cell-based; settings: Streptococcus pyogenes
Description: as §2

[2] = overt drug induced toxicity in infected mice at the therapeutic dose; format: in vivo; settings: sub-cutaneous
Method: as §1

E. coli E96 (Rtem) = experiment: in-vivo test in mice infected intraperitoneally with E. coli E96 (Rtem), amoxycillin synergy; settings: Escherichia coli, sc, read-out: CD50 of amoxycillin alone
Klebsiella aerogenes E70 = experiment: in vitro MIC of ampicillin with and without the compound (synergy); format: cell-based; settings: without the compound of Example 2, read-out: in vitro MIC of ampicillin alone
[3] = read-out: CD50 (the source's name)

Compound: O=C(O)[C@H]1/C(=C/CO)O[C@@H]2CC(=O)N21 [Clavulanic acid sodium, reference compound]
ED50 ([1]; range of results in various tests, read-out: CD50, range of results in various tests): 12 to 27 mg/kg
ED50 [1, 3]: 13 mg/kg

Compound: O=C(O)[C@H]1/C(=C/CN2CCc3ccccc3C2)O[C@@H]2CC(=O)N21 [Example 2, 9-N-(1,2,3,4-Tetrahydroisoquinolyl)deoxyclavulanic acid]
MIC (E. coli 0111): 80 µg/mL (≈ 255 µM)
MIC (E. coli ESS): 10 µg/mL (≈ 31.8 µM)
MIC (E. coli JT39 (R+)): 40 µg/mL (≈ 127 µM)
MIC (Kleb. aerogenes A): 20 µg/mL (≈ 63.6 µM)
MIC (Prot. mirabilis C977): > 80 µg/mL
MIC (Staph. aureus 1517): 20 µg/mL (≈ 63.6 µM)
MIC (Staph. aureus Oxford): ≤ 1.25 µg/mL
MIC (Staph. aureus Russell): ≤ 1.25 µg/mL
MIC (Strep. faecalis I): 80 µg/mL (≈ 255 µM)
MIC (Strep. pneumoniae): ≤ 1.25 µg/mL
MIC (Strep. pyogenes CN1O): ≤ 1.25 µg/mL
ED50 [1, 3]: 3.5 mg/kg
anti-bacterial activity in-vivo ([1]; result in words): good anti-bacterial activity in-vivo
overt drug induced toxicity [2]: No overt drug induced toxicity was observed

Compound: CC1(C)S[C@@H]2[C@H](NC(=O)[C@H](N)c3ccc(O)cc3)C(=O)N2[C@H]1C(=O)O [amoxycillin]
ED50 (E. coli E96 (Rtem)): > 1000 mg/kg

MIC (Klebsiella aerogenes E70): 125 µg/mL
Compound: CC1(C)S[C@@H]2[C@H](NC(=O)[C@H](N)c3ccccc3)C(=O)N2[C@H]1C(=O)O [ampicillin]
